The target of assay [1] is T1, rat TAP1-NBD (Rattus norvegicus, UniProt P36370).
T1 construct: monomer-homodimer equilibrium
T1 sequence (P36370 465-725): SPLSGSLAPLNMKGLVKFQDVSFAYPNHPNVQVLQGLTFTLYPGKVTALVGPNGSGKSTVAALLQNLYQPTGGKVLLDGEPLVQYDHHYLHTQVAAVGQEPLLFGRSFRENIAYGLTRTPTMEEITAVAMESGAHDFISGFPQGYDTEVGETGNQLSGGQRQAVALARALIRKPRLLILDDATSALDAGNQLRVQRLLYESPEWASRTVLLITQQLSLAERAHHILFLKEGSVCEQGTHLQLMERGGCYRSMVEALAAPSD
Kind of assay: fluorescence polarization, direct titration. As to conditions: pH 8.0, 20 mM Tris, 50 mM NaCl, 1 mM dithiothreitol; labelled compound. In kind it is binding. From the text: fluorescence polarization, direct titration on rat TAP1-NBD | series of eight twofold dilutions in assay buffer
(Polarisation of emitted light reports the rotation of a fluorescent probe.)

Assay [2] addresses T2, TAP with tapasin-TAP2 fusion (Tsn-TAP) (Homo sapiens, UniProt Q03518+Q03519).
T2 construct: gene TAP1; purified heterodimer from Sf9 cells in digitonin; TAP2 fused N-terminally to tapasin (TAPBP) only to separate the subunits on the gel
T2 sequence (Q03518 1-748): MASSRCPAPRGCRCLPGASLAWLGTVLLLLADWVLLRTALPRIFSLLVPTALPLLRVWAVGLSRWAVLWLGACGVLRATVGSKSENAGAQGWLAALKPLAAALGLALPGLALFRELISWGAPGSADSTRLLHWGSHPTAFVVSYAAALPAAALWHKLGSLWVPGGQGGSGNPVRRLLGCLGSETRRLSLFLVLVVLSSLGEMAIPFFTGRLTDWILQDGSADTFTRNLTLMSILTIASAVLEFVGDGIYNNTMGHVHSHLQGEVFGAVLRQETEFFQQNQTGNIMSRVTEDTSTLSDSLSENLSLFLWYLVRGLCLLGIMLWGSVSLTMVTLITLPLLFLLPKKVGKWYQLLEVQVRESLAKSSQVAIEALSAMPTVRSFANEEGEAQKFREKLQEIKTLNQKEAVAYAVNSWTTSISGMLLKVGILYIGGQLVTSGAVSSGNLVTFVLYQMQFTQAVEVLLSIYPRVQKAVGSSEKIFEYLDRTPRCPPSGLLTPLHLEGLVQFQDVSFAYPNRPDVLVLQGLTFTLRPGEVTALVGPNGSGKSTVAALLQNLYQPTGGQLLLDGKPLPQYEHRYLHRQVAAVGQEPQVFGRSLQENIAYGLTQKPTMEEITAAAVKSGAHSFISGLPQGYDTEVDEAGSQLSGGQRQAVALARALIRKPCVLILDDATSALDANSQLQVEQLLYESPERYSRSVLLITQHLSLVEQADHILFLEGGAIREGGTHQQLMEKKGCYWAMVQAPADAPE
T2 sequence (Q03519 1-686): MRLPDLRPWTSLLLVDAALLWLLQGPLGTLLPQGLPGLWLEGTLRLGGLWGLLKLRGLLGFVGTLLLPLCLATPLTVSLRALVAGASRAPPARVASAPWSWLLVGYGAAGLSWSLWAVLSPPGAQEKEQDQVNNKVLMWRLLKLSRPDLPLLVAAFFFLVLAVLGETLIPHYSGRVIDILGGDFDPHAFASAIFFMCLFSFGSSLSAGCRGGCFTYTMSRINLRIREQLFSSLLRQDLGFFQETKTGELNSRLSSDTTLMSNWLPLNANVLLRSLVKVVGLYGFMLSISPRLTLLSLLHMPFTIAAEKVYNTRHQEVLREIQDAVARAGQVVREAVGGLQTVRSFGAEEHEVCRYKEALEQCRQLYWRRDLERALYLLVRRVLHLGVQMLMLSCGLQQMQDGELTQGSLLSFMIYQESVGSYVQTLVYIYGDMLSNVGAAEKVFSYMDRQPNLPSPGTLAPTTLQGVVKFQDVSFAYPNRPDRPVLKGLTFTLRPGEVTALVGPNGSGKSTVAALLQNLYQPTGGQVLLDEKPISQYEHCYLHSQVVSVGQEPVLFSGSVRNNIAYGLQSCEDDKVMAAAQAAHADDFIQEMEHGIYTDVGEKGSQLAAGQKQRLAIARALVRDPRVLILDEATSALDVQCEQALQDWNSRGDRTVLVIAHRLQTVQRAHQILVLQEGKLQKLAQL
T2 sequence (O15533 21-448 partner): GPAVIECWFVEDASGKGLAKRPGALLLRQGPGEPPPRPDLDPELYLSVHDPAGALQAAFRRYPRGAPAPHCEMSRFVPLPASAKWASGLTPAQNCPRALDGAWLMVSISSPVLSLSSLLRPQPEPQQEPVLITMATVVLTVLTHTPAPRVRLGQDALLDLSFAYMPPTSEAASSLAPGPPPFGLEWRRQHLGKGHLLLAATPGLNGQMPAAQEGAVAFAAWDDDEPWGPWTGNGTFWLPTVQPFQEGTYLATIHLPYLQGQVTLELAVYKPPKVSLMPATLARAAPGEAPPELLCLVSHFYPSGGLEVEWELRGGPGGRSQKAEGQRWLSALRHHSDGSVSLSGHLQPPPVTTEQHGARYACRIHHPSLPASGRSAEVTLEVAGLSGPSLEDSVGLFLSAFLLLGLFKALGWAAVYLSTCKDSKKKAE
In words: competition with 8-azido-[α-32P]ATP photo-crosslinking. Type of assay: binding. As to conditions: 200-fold excess, 1 mM MgCl2, pH 7.4, 4 °C.

Assay [3] has as its target T1, rat TAP1-NBD. In words: fluorescence polarization competition with ATP-Bodipy. Type of assay: binding. From the text: (§1) fluorescence polarization competition with ATP-Bodipy on rat TAP1-NBD | affinities for ATP and ADP of isolated wt and D-loop (D651A) mutant rat TAP1-NBD
Assay [4] deals with T3, rat TAP1-NBD (Rattus norvegicus, UniProt P36370, D651A).
T3 construct: monomer-homodimer equilibrium
T3 sequence (P36370 465-725 D651A): T1 sequence (P36370 465-725) with D187A
Described as above. In kind it is binding.
Excerpt: as §1

Assay [5] addresses T1, rat TAP1-NBD. In words: biochemical. On the set-up: fluorescence polarization competition of unlabelled nucleotide against 1 uM ATP-Bodipy, TAP1-NBD. As for the experimental part: Nucleotide-stripped TAP1-NBD samples were re-concentrated to ~100 μM, and used to make a series of eight twofold dilutions in assay buffer (20 mM Tris, pH 8.0, 50 mM NaCl, 1 mM dithiothreitol) with 1 μM ATP-Bodipy (Invitrogen). A background control contained no protein. For competitive binding experiments, NBDs (25 μM final) were mixed with 1 μM ATP-Bodipy and a series of ten twofold dilutions of unlabelled nucleotide, with samples with no labelled nucleotide serving as background control. Fluorescence polarization was measured in FlexStation 3 with excitation at 488 nm. All samples were run two or three times in triplicates. Data were analysed with Origin (OriginLab Corp.). Binding affinities of unlabelled nucleotides (Kis) were obtained using Ki=IC50/([L]/Kd+1). To explore the molecular mechanism of antigen translocation, wt TAP and the D674A/wt complex were purified and functionally reconstituted in proteoliposomes. […] Furthermore, the Michaelis–Menten kinetics for peptide transport by wt TAP and D674A/wt are equal (Fig. 2c, Supplementary Fig. 2c and Supplementary Table 3), confirming that the affinity for ATP and peptides is not affected by the D-loop substitution.

Assay [6] concerns the target T4, TAP (TAP1/TAP2 complex; wt TAP) (Homo sapiens, UniProt Q03518+Q03519).
T4 construct: full-length heterodimer from Sf9 insect cells (baculovirus), purified and reconstituted in proteoliposomes, or in membranes
T4 sequence (Q03518 1-748): T2 sequence (Q03518 1-748)
T4 sequence (Q03519 1-686): T2 sequence (Q03519 1-686)
In words: ATP binding affinity. As to conditions: type of constant not stated in main text.

Assay [7] addresses T4, TAP (TAP1/TAP2 complex; wt TAP). In words: biochemical. As to conditions: read-out: ATP binding IC50. Also noted: species or system Sf9; ATP-agarose competition binding assay with TAP-containing Sf9 membranes.
Assay [8] addresses T5, rat TAP1-NBD (Rattus norvegicus, UniProt P36370, D645N/D651A).
T5 construct: monomer-homodimer equilibrium
T5 sequence (P36370 465-725 D645N/D651A): T1 sequence (P36370 465-725) with D181N, D187A
In words: X-ray crystal structure, […] Å. As to conditions: crystals pH 8.0; canonical NBD dimer with two ATP. Type of assay: binding.

This is an account of results in publication PMC4242082, “Mechanistic determinants of the directionality and energetics of active export by a heterodimeric ABC transporter” (Nature Communications, 2014).

As a reminder, the Kd is the constant that tells how readily two partners part at equilibrium. The low end stands for tighter binding, the high end for weaker binding. The Ki is the equilibrium dissociation constant of an inhibitor or competing ligand from its target. A lower Ki goes with higher affinity. The term IC50 denotes the midpoint of a concentration-inhibition curve.

Where a chain is given by its changes, count along the chain named. Where two headings read alike, the source gives them in different places.

In turn, ATP-Bodipy gave a Kd at rat TAP1-NBD [1] of 6.1 ± 1.7 µM.

`Nc1ncnc2c1ncn2[C@@H]1O[C@H](COP(=O)(O)OP(=O)(O)O)[C@@H](O)[C@H]1O` [ADP]: the “competition with 8-azido-[α-32P]ATP photo-crosslinking” value in assay [2] was “wt and D674A/wt TAP showed the same binding properties for ATP, ADP (Fig. 2b)”. The values for the Ki on rat TAP1-NBD [3] and on rat TAP1-NBD [4] were 59 ± 2 µM and 59 ± 3 µM, respectively. In addition, the IC50 on rat TAP1-NBD [5] (read-out: IC50 (µM) ADP) was 69 ± 14 µM.

Consider `Nc1ncnc2c1ncn2[C@@H]1O[C@H](COP(=O)(O)OP(=O)(O)OP(=O)(O)O)[C@@H](O)[C@H]1O` [ATP], for which the affinity entry in assay [6] was “all mutants displayed similar affinity for peptides and ATP as compared with wt TAP”. Besides, the IC50 in assay [7] worked out at 10 ± 1 µM; at rat TAP1-NBD [5] (read-out: IC50 (µM) ATP), 139 ± 30 µM. Also, the Ki at rat TAP1-NBD [3] came to 119 ± 13 µM; at rat TAP1-NBD [4] it was 148 ± 9 µM. For the same compound, the “X-ray crystal structure, 2.65 Å” value at rat TAP1-NBD [8] is “the two ATPs and their binding sites are essentially unaffected by this structural re-organization”.
